Measurements taken from patent US10233328B2, “Sol-gel based matrix” (KØBENHAVNS UNIVERSITET, priority 2013, dated 2019).

Tests used:
[1] = pH titration of sensor spots (pKa of the sensor); format: physicochemical; conditions: dye in ETEOS-GPTMS matrix, Table 2
Description: To perform titrations rapidly a set-up employing an epi-fluorescence microscopy equipped with a halogen light source and an Ocean Optics spectrometer for detection. The sensor spot was attached to a homemade holder, which kept the spot in place in a large chamber filled with water, where pH was externally monitored with a pH meter. Alternatively the sensor spot was affixed on the wall of a cuvette and the titration was performed in a Perkin Elmer LS50B, controlling the pH between measurements.
The performance of the sensors is shown as titration curves in FIG. 4. It is clear that a pH-dependent sensor action is achieved for these two sensor systems.

[2] = Leakage of dye from ETEOS-GPTMS matrix into surrounding PBS (physical stability); format: physicochemical; conditions: for Leaking: fluorescence Intensity (a.u.): PBS pH 7.0 surrounding coated glass slide
Description: The photostability was followed by constant illumination of the sensor spot with wavelength selected light from a xenon lamp. The physical stability was tested by immersing the sensor spot in low or high pH aqueous solution, and monitoring the fluorescence from the solution.
Table 2. Leaking of 5(6)-carboxyfluorescein (CF), DMQA-2, DAOTA-1, and 6-stearamido-fluorescein (AF18) from the ETEOS-GPTMS matrix given as fluorescence intensity measured from a PBS solution at pH 7 surrounding a glass slide coated with ETEOS-GPTMS-dye matrix using maximum sized slit widths at the emission and excitation sites of the spectrometer.
All the leakage data is compiled in table 2.

| Compound | pKa [1] | Leakage from ETEOS-GPTMS matrix (in words) ([2]; PBS pH 7.0) | Leaking: fluorescence Intensity (a.u.) ([2]; leaking period 2 h, half the slit widths used for DMQA-2 and DAOTA-1) | Leaking: fluorescence Intensity (a.u.) ([2]; leaking period 4 d) |
| --- | --- | --- | --- | --- |
| 5(6)-carboxyfluorescein [CF] | 6.5 | extensive leakage | >>800 a.u. |  |
| CCCCCCCCCCCCCCCCCC(=O)Nc1ccc2c(c1)C1(OC2=O)c2ccc(O)cc2Oc2cc(O)ccc21 [AFC18, 6-stearamido-fluorescein] | 6.5 |  |  | 100 |
